Test results reported in PMC5218480 (PLoS ONE, 2017).

Test system: MV-4-11 cells
Test: Gene expression microarray analysis (Affymetrix PrimeView) and GSEA
Format: cell-based, human
Design: RFU PODN (11730768_x_at) / Fold change /veh PODN (11730768_x_at) / RFU LINC00158 (11744669_a_at) / Fold change /veh LINC00158 (11744669_a_at) / RFU DUSP10 (11751237_a_at) / Fold change /veh DUSP10 (11751237_a_at) / RFU ID3 (11757404_x_at) / Fold change /veh ID3 (11757404_x_at) / RFU PLEKHG5 (11737974_s_at) / Fold change /veh PLEKHG5 (11737974_s_at) / RFU LRRC4B (11730491_at) / Fold change /veh LRRC4B (11730491_at) / RFU GIMAP4 (11747438_a_at) / Fold change /veh GIMAP4 (11747438_a_at) / RFU KRT8 (11758183_x_at) / Fold change /veh KRT8 (11758183_x_at) / RFU CNN1 (11734310_a_at) / Fold change /veh CNN1 (11734310_a_at) / RFU VPS37D (11726825_at) / Fold change /veh VPS37D (11726825_at) / RFU C10orf10 (11716522_x_at) / Fold change /veh C10orf10 (11716522_x_at) / RFU KIR2DL2 /// KIR2DL4 /// KIR2DL5A /// KIR2DL5B /// KIR2DS1 /// KIR2DS2 /// KIR2DS3 /// KIR2DS4 /// KIR3DL3 /// KIR3DL3 /// KIR3DS1 (11738374_at) / Fold change /veh KIR2DL2 /// KIR2DL4 /// KIR2DL5A /// KIR2DL5B /// KIR2DS1 /// KIR2DS2 /// KIR2DS3 /// KIR2DS4 /// KIR3DL3 /// KIR3DL3 /// KIR3DS1 (11738374_at) / RFU C1QL1 (11718748_at) / Fold change /veh C1QL1 (11718748_at) / RFU TMPRSS4 (11747572_a_at) / Fold change /veh TMPRSS4 (11747572_a_at) / RFU HAMP (11756126_x_at) / Fold change /veh HAMP (11756126_x_at) / RFU RNFT2 (11725882_a_at) / Fold change /veh RNFT2 (11725882_a_at) / RFU NR4A2 (11747474_a_at) / Fold change /veh NR4A2 (11747474_a_at) / RFU ABCC12 (11746883_a_at) / Fold change /veh ABCC12 (11746883_a_at) / RFU TMEM136 (11760407_x_at) / Fold change /veh TMEM136 (11760407_x_at) / RFU CLDN22 /// WWC2 (11732394_at) / Fold change /veh CLDN22 /// WWC2 (11732394_at) / RFU HLA-DPB1 (11760878_x_at) / Fold change /veh HLA-DPB1 (11760878_x_at) / RFU SPINT1 (11716480_a_at) / Fold change /veh SPINT1 (11716480_a_at) / RFU GAP43 (11754022_s_at) / Fold change /veh GAP43 (11754022_s_at) / RFU A4GNT (11735810_at) / Fold change /veh A4GNT (11735810_at) / RFU PRB3 (11715151_x_at) / Fold change /veh PRB3 (11715151_x_at) / RFU TUBB4B (11761932_at) / Fold change /veh TUBB4B (11761932_at) / RFU CAPN14 (11732068_a_at) / Fold change /veh CAPN14 (11732068_a_at) / RFU TMCC2 (11721928_a_at) / Fold change /veh TMCC2 (11721928_a_at) / RFU IRGQ (11745062_a_at) / Fold change /veh IRGQ (11745062_a_at) / RFU FAM174B (11720279_a_at) / Fold change /veh FAM174B (11720279_a_at) / RFU TMPRSS4 (11748680_a_at) / Fold change /veh TMPRSS4 (11748680_a_at) / RFU FAM212B (11763350_a_at) / Fold change /veh FAM212B (11763350_a_at) / RFU PLEKHG5 (11743358_a_at) / Fold change /veh PLEKHG5 (11743358_a_at) / RFU ZSCAN30 (11745921_a_at) / Fold change /veh ZSCAN30 (11745921_a_at) / RFU CMKLR1 (11741424_a_at) / Fold change /veh CMKLR1 (11741424_a_at) / RFU LOC101060620 /// MAPK8IP1 (11723275_at) / Fold change /veh LOC101060620 /// MAPK8IP1 (11723275_at) / RFU SPTSSB (11747773_x_at) / Fold change /veh SPTSSB (11747773_x_at) / RFU PRSS12 (11739890_at) / Fold change /veh PRSS12 (11739890_at) / RFU BIN1 (11741810_x_at) / Fold change /veh BIN1 (11741810_x_at) / RFU WNT11 (11732464_a_at) / Fold change /veh WNT11 (11732464_a_at) / RFU C10orf10 (11716521_a_at) / Fold change /veh C10orf10 (11716521_a_at) / RFU C5orf56 (11738089_at) / Fold change /veh C5orf56 (11738089_at) / RFU CYB561 (11721691_x_at) / Fold change /veh CYB561 (11721691_x_at) / RFU ANKRD19P (11752326_a_at) / Fold change /veh ANKRD19P (11752326_a_at) / RFU OR2T12 /// OR2T33 /// OR2T8 (11738714_s_at) / Fold change /veh OR2T12 /// OR2T33 /// OR2T8 (11738714_s_at) / RFU VCAN (11748164_a_at) / Fold change /veh VCAN (11748164_a_at) / RFU JSRP1 (11732532_at) / Fold change /veh JSRP1 (11732532_at) / RFU KRTAP10-11 (11738290_x_at) / Fold change /veh KRTAP10-11 (11738290_x_at) / RFU MYO3A (11730013_a_at) / Fold change /veh MYO3A (11730013_a_at) / RFU EBF3 (11725865_a_at) / Fold change /veh EBF3 (11725865_a_at) / RFU CAMK2N1 (11719241_x_at) / Fold change /veh CAMK2N1 (11719241_x_at) / RFU C5orf56 (11738088_a_at) / Fold change /veh C5orf56 (11738088_a_at) / RFU OLFML3 (11715873_a_at) / Fold change /veh OLFML3 (11715873_a_at) / RFU LOC100653217 /// NTM (11731650_a_at) / Fold change /veh LOC100653217 /// NTM (11731650_a_at) / RFU MAPK11 (11762145_a_at) / Fold change /veh MAPK11 (11762145_a_at) / RFU FIZ1 (11724087_x_at) / Fold change /veh FIZ1 (11724087_x_at) / RFU OASL (11726364_x_at) / Fold change /veh OASL (11726364_x_at) / RFU SOX15 (11748057_x_at) / Fold change /veh SOX15 (11748057_x_at) / RFU CD79A (11719716_a_at) / Fold change /veh CD79A (11719716_a_at) / RFU HIST1H1D (11736915_at) / Fold change /veh HIST1H1D (11736915_at) / RFU CASKIN2 (11723855_a_at) / Fold change /veh CASKIN2 (11723855_a_at) / RFU LOC730098 (11760151_x_at) / Fold change /veh LOC730098 (11760151_x_at) / RFU OR4N2 (11742367_at) / Fold change /veh OR4N2 (11742367_at) / RFU PRRT2 (11749266_a_at) / Fold change /veh PRRT2 (11749266_a_at) / RFU SNX32 (11753110_a_at) / Fold change /veh SNX32 (11753110_a_at) / RFU CDHR5 (11726645_a_at) / Fold change /veh CDHR5 (11726645_a_at) / RFU RCAN1 (11760418_a_at) / Fold change /veh RCAN1 (11760418_a_at) / RFU FAM167A (11723789_a_at) / Fold change /veh FAM167A (11723789_a_at) / RFU FAM26E (11764081_at) / Fold change /veh FAM26E (11764081_at) / RFU ISYNA1 (11749810_s_at) / Fold change /veh ISYNA1 (11749810_s_at) / RFU ACY1 (11761880_at) / Fold change /veh ACY1 (11761880_at) / RFU 11764098_at / Fold change /veh 11764098_at / RFU SAMD14 (11745864_x_at) / Fold change /veh SAMD14 (11745864_x_at) / RFU NPB (11741838_a_at) / Fold change /veh NPB (11741838_a_at) / RFU TMPRSS6 (11731388_a_at) / Fold change /veh TMPRSS6 (11731388_a_at) / RFU KRTAP10-2 (11738614_at) / Fold change /veh KRTAP10-2 (11738614_at) / RFU ARHGAP8 /// PRR5-ARHGAP8 (11727945_x_at) / Fold change /veh ARHGAP8 /// PRR5-ARHGAP8 (11727945_x_at) / RFU KRTAP5-7 /// NADSYN1 (11734609_at) / Fold change /veh KRTAP5-7 /// NADSYN1 (11734609_at) / RFU RASL12 (11751679_a_at) / Fold change /veh RASL12 (11751679_a_at) / RFU CDKN2B (11736163_a_at) / Fold change /veh CDKN2B (11736163_a_at) / RFU PRF1 (11729649_at) / Fold change /veh PRF1 (11729649_at) / RFU, ZNF638 /// ZNF638-IT1 / Fold change vs veh, ZNF638 /// ZNF638-IT1 / RFU, PANK3 / Fold change vs veh, PANK3 / RFU, SH3YL1 / Fold change vs veh, SH3YL1 / RFU, ZEB2 / Fold change vs veh, ZEB2 / RFU, NRIP1 / Fold change vs veh, NRIP1 / RFU, PTTG1IP / Fold change vs veh, PTTG1IP / RFU, CAPN2 / Fold change vs veh, CAPN2 / RFU, MED14 / Fold change vs veh, MED14 / RFU, SNORA58 / Fold change vs veh, SNORA58 / RFU, C1orf63 / Fold change vs veh, C1orf63 / RFU, LRRFIP1 / Fold change vs veh, LRRFIP1 / RFU, NDUFAF7 / Fold change vs veh, NDUFAF7 / RFU, SLC12A2 / Fold change vs veh, SLC12A2 / RFU, IBTK / Fold change vs veh, IBTK / RFU, ESF1 / Fold change vs veh, ESF1 / Fold change vs veh, TMEM50B / RFU, TAOK1 / Fold change vs veh, TAOK1 / RFU, ACBD3 / Fold change vs veh, ACBD3 / RFU, TMA16 / Fold change vs veh, TMA16 / RFU, RWDD3 / Fold change vs veh, RWDD3 / RFU, BCAT1 / Fold change vs veh, BCAT1 / RFU, EDEM3 / Fold change vs veh, EDEM3 / RFU, TMEM33 / Fold change vs veh, TMEM33 / RFU, WDR75 / Fold change vs veh, WDR75 / RFU, AHCTF1 / Fold change vs veh, AHCTF1 / RFU, TFRC / Fold change vs veh, TFRC / RFU, ZDHHC17 / Fold change vs veh, ZDHHC17 / RFU, NOM1 / Fold change vs veh, NOM1 / RFU, ARL8B / Fold change vs veh, ARL8B / RFU, ZBTB11 / Fold change vs veh, ZBTB11 / RFU, TAMM41 / Fold change vs veh, TAMM41 / RFU, KIAA1704 /// LOC100996395 / Fold change vs veh, KIAA1704 /// LOC100996395 / RFU, ING1 / Fold change vs veh, ING1 / RFU, TRMT61B / Fold change vs veh, TRMT61B / RFU, FUBP3 / Fold change vs veh, FUBP3 / RFU, TP53 / Fold change vs veh, TP53 / RFU, TNKS2 / Fold change vs veh, TNKS2 / RFU, ZFP14 / Fold change vs veh, ZFP14 / RFU, ACTR2 / Fold change vs veh, ACTR2 / RFU, PPP3R1 / Fold change vs veh, PPP3R1 / RFU, PIK3R1 / Fold change vs veh, PIK3R1 / RFU, HNRNPA1 / Fold change vs veh, HNRNPA1 / RFU, RNF170 / Fold change vs veh, RNF170 / RFU, ZNF28 / Fold change vs veh, ZNF28 / RFU, RNGTT / Fold change vs veh, RNGTT / RFU, OGT / Fold change vs veh, OGT / RFU, BRD1 / Fold change vs veh, BRD1 / RFU, MARS / Fold change vs veh, MARS / RFU, ZNF655 / Fold change vs veh, ZNF655 / RFU, FAHD1 / Fold change vs veh, FAHD1 / RFU, BDP1 / Fold change vs veh, BDP1 / RFU, LRRCC1 / Fold change vs veh, LRRCC1 / RFU, ARID1A / Fold change vs veh, ARID1A / RFU, ZNF146 / Fold change vs veh, ZNF146 / RFU, ZNF330 / Fold change vs veh, ZNF330 / RFU, GPN3 / Fold change vs veh, GPN3 / RFU, C9orf123 / Fold change vs veh, C9orf123 / RFU, N4BP2L2 / Fold change vs veh, N4BP2L2 / RFU, ARFIP1 / Fold change vs veh, ARFIP1 / RFU, FAM179B / Fold change vs veh, FAM179B / RFU, BCL10 / Fold change vs veh, BCL10 / RFU, UHRF1BP1L / Fold change vs veh, UHRF1BP1L / RFU, BET1 / Fold change vs veh, BET1 / RFU, CNOT2 / Fold change vs veh, CNOT2 / RFU, ZNF268 / Fold change vs veh, ZNF268 / Fold change vs veh, ZNF507 / RFU, DGCR2 / Fold change vs veh, DGCR2 / RFU, WDSUB1 / Fold change vs veh, WDSUB1 / Fold change vs veh, HSP90B1 /// MIR3652 / RFU, ADSS / Fold change vs veh, ADSS / RFU, GK / Fold change vs veh, GK / RFU, ZNF148 / Fold change vs veh, ZNF148 / RFU, TAF9 / Fold change vs veh, TAF9 / RFU, SLC1A5 / Fold change vs veh, SLC1A5 / RFU, SLMO2 / Fold change vs veh, SLMO2 / RFU, ABCC4 / Fold change vs veh, ABCC4 / RFU, LOC101060439 /// RAP1B / Fold change vs veh, LOC101060439 /// RAP1B / RFU, RFX7 / Fold change vs veh, RFX7 / RFU, GTPBP10 / Fold change vs veh, GTPBP10 / RFU, CNEP1R1 / Fold change vs veh, CNEP1R1 / RFU, BIVM-ERCC5 /// ERCC5 / Fold change vs veh, BIVM-ERCC5 /// ERCC5 / RFU, ILF3 / Fold change vs veh, ILF3 / RFU 11762660_at / Fold change /veh 11762660_at / RFU VCAN (11757783_s_at) / Fold change /veh VCAN (11757783_s_at) / RFU DDX43 (11728927_at) / Fold change /veh DDX43 (11728927_at) / RFU KRT8 (11758188_x_at) / Fold change /veh KRT8 (11758188_x_at) / RFU NKD1 (11759106_at) / Fold change /veh NKD1 (11759106_at) / RFU SRD5A1 (11742802_a_at) / Fold change /veh SRD5A1 (11742802_a_at) / RFU TPSAB1 /// TPSB2 (11721975_s_at) / Fold change /veh TPSAB1 /// TPSB2 (11721975_s_at) / RFU GSTM3 (11746129_a_at) / Fold change /veh GSTM3 (11746129_a_at) / RFU IL23R (11737362_x_at) / Fold change /veh IL23R (11737362_x_at) / RFU TMEM51 (11727254_a_at) / Fold change /veh TMEM51 (11727254_a_at) / RFU PIWIL2 (11732686_x_at) / Fold change /veh PIWIL2 (11732686_x_at) / RFU ORM1 (11744905_x_at) / Fold change /veh ORM1 (11744905_x_at) / RFU CCDC152 (11743942_at) / Fold change /veh CCDC152 (11743942_at) / RFU ECM1 (11717891_a_at) / Fold change /veh ECM1 (11717891_a_at) / RFU IL23R (11748794_a_at) / Fold change /veh IL23R (11748794_a_at) / RFU TNFAIP8L3 (11732012_x_at) / Fold change /veh TNFAIP8L3 (11732012_x_at) / RFU MBOAT4 (11741988_at) / Fold change /veh MBOAT4 (11741988_at) / RFU 11764193_at / Fold change /veh 11764193_at / RFU TMEM53 (11763286_at) / Fold change /veh TMEM53 (11763286_at) / RFU MAGEB2 (11727129_at) / Fold change /veh MAGEB2 (11727129_at) / RFU TMEM200A (11744735_a_at) / Fold change /veh TMEM200A (11744735_a_at) / RFU CCDC152 (11751479_a_at) / Fold change /veh CCDC152 (11751479_a_at) / RFU FAM211A (11726209_a_at) / Fold change /veh FAM211A (11726209_a_at) / RFU RGS16 (11746705_a_at) / Fold change /veh RGS16 (11746705_a_at) / RFU VCAN (11755009_s_at) / Fold change /veh VCAN (11755009_s_at) / RFU RHOB (11743442_s_at) / Fold change /veh RHOB (11743442_s_at) / RFU RGS16 (11720943_a_at) / Fold change /veh RGS16 (11720943_a_at) / RFU RGS16 (11720944_at) / Fold change /veh RGS16 (11720944_at) / RFU, VPS4B / Fold change vs veh, VPS4B / RFU, CREB1 / Fold change vs veh, CREB1 / RFU, DNAJC13 / Fold change vs veh, DNAJC13 / RFU, GNAQ / Fold change vs veh, GNAQ / RFU, CDK5R1 / Fold change vs veh, CDK5R1 / RFU, ZRANB3 / Fold change vs veh, ZRANB3 / RFU, CUL4A / Fold change vs veh, CUL4A / RFU, CCNY / Fold change vs veh, CCNY / RFU, UFL1 / Fold change vs veh, UFL1 / RFU, COG3 / Fold change vs veh, COG3 / RFU, DIAPH2 / Fold change vs veh, DIAPH2 / RFU, SKA2 / Fold change vs veh, SKA2 / RFU, AFF3 / Fold change vs veh, AFF3 / RFU, LMF1 / Fold change vs veh, LMF1 / RFU, IPO11 / Fold change vs veh, IPO11 / RFU, DFFB / Fold change vs veh, DFFB / RFU, FOXP1 / Fold change vs veh, FOXP1 / RFU, CARD8 / Fold change vs veh, CARD8 / RFU, STRN3 / Fold change vs veh, STRN3 / RFU, ADK / Fold change vs veh, ADK / RFU, RASSF2 / Fold change vs veh, RASSF2 / RFU, WIPF1 / Fold change vs veh, WIPF1 / RFU, LARP1B / Fold change vs veh, LARP1B / RFU, RASA1 / Fold change vs veh, RASA1 / RFU, RB1 / Fold change vs veh, RB1 / RFU, PPFIA1 / Fold change vs veh, PPFIA1 / RFU, MAT2A / Fold change vs veh, MAT2A / RFU, CCT5 / Fold change vs veh, CCT5 / RFU, WDR92 / Fold change vs veh, WDR92 / RFU, CUX1 / Fold change vs veh, CUX1 / RFU, TTC7A / Fold change vs veh, TTC7A / RFU, TMEM135 / Fold change vs veh, TMEM135 / RFU, DEPTOR / Fold change vs veh, DEPTOR / RFU, CPM / Fold change vs veh, CPM / RFU, DNAJB6 / Fold change vs veh, DNAJB6 / RFU, CACNA2D3 / Fold change vs veh, CACNA2D3 / RFU, DTX4 / Fold change vs veh, DTX4 / RFU, TFCP2 / Fold change vs veh, TFCP2 / RFU, GMCL1 /// GMCL1P1 / Fold change vs veh, GMCL1 /// GMCL1P1 / RFU, AEBP2 / Fold change vs veh, AEBP2 / RFU, SNHG1 /// SNORD22 /// SNORD25 /// SNORD26 /// SNORD27 /// SNORD28 /// SNORD29 /// SNORD31 / Fold change vs veh, SNHG1 /// SNORD22 /// SNORD25 /// SNORD26 /// SNORD27 /// SNORD28 /// SNORD29 /// SNORD31 / Fold change (Aza/veh), C12orf56 (ProbeSet 11735607_a_at) / Fold change (ACY-1035/veh), C12orf56 (ProbeSet 11735607_a_at) / Fold change (Aza/veh), FGFR1OP (ProbeSet 11751329_s_at) / Fold change (ACY-1035/veh), FGFR1OP (ProbeSet 11751329_s_at) / Fold change (Aza/veh), VPS36 (ProbeSet 11739960_a_at) / Fold change (ACY-1035/veh), VPS36 (ProbeSet 11739960_a_at) / RFU SYPL1 (11715823_x_at) / Fold change /veh SYPL1 (11715823_x_at) / RFU IGFBP7 (11715501_s_at) / Fold change /veh IGFBP7 (11715501_s_at) / RFU REEP3 (11722064_at) / Fold change /veh REEP3 (11722064_at) / RFU IGLL1 (11728026_x_at) / Fold change /veh IGLL1 (11728026_x_at): dose or concentration left out as unconfirmed
Conditions: MV-4-11 cells, 48 hours

Nc1ccc(-c2cccs2)cc1NC(=O)c1ccc2c(c1)cc(C1CC1)n2CCN1CCOCC1 [ACY-1035] was tested, and the “RFU EBF3 (11725865_a_at)” value was 63.04 RFU.
